In publication PMC4122966, “Novel VCP modulators mitigate major pathologies of rd10, a mouse model of retinitis pigmentosa” (Scientific Reports, 2014):
“And” between values parts separate entries of the source, which are not always exact repeats. Equal entries are not always repeated.

What was measured:
[1] = test system: retinal neuronal cells; assay: retinal organ culture with NMDA insult; format: cell-based, mouse; settings: 200 µM NMDA, 50 µM KUS121, 4 days
Method: Supplementary Figure Legends
Supplementary Figure 1 Inhibitory effects of KUS121, KUS187, and DBeQ on the ATPase activity of recombinant VCP purified from E. coli.
Supplementary Figure 2 (a) HeLa cells were cultured in medium with low glucose (0.25 g/l) for 20 hours, with or without KUSs, and ATP levels were measured with luciferase assays. *** P < 0.005 vs. DMSO control (Dunnett’s test, n=3). HG: medium with 4.5 g/l glucose. Error bars indicate SD. (b) HeLa cells were cultured in medium with low glucose (0.2 g/l) for 20 hours, with DMSO or KUSs, and ATP and ADP levels were measured by HPLC. The respective ratios of ATP/ADP are shown. * P < 0.05, ** P < 0.01 vs. DMSO control (Dunnett’s test, n=3). Error bars indicate SD. (c) HeLa cells were cultured in medium without glucose for 6 hours, with (50 µM each KUS, as indicated) or without KUSs, and acetyl-CoA levels were measured by HPLC.
Supplementary Figure 3 Immunohistochemical analyses of retinal neuronal cells.
Retinal sections of 5-month-old C57BL/6 mice were stained with (b) or without (a) an anti-VCP antibody12, developed with diaminobenzidine and counter-stained with hematoxylin (a, b). Note that all retinal neuronal cells highly expressed VCP. GCL: ganglion cell layer, IPL: inner plexiform layer, INL: inner nuclear layer, OPL: outer plexiform layer, ONL: outer nuclear layer, IS: inner segment, OS: outer segment.
Retinas from adult C57BL/6 mice were cultured on porous membrane with 200 µM of NMDA with or without KUS121 (50 µM) for 4 days. (a) HE-stained retinal sections.
In the retina cultured with KUS121, the inner nuclear layer (INL), inner plexiform layer (IPL), ganglion cell layer (GCL), and retinal nerve fiber layer (RNFL) were thicker than that of the retina without KUS121. (b) TUNEL staining of the retinal […]
Supplementary Figure 5 (a) Cross sectional (vertical) images obtained by spectral-domain optical coherence tomography (SD-OCT) in 21-day-old C57BL/6 wild-type (WT) and rd10 mice with or without KUSs. […] (c) The mean amplitude of the a-wave (measured at 25 msec), which is derived from photoreceptors, in KUS-treated […]

[2] = target: recombinant VCP (Homo sapiens, UniProt P55072); assay: ATPase activity of recombinant VCP in vitro (modified molybdate assay, [γ-32P]ATP); format: biochemical
Method: We measured ATPase activities by modifying the molybdate assay, which was as described previously. In the assay, 1 μg of whole cell soluble lysate of neuronally differentiated PC12 cells, or 500 ng recombinant VCP protein, was incubated in 20 μl of the ATPase assay buffer (20 mM HEPES (pH 7.4), 50 mM KCl, 5 mM MgCl2) with 100 μM [γ-^32P]ATP (18.5 GBq/mmol) (PerkinElmer) at 37°C for 20 min. After incubation, the reaction was quenched by addition of 200 μl of 8% ice-cold trichloroacetic acid solution with 1 mM K2HPO4, and then 50 μl of solution A (3.75% ammonium molybdate, 0.02 M silicotungstic acid in 3 N H2SO4) and 300 μl of n-butyl acetate were added to the reaction. The samples were mixed well and centrifuged at 12,000 × g for 1 min. Then, 200 μl aliquots from the upper organic phases were taken and their radioactivity was determined with a liquid scintillation counter for β-radiation, which determined the amounts of ^32P released.

[3] = test system: HeLa cells; assay: protection from cell death in low glucose medium (WST); format: cell-based; settings: low glucose 0.2 g/l, 5, 10, 20, and 50 μM, 41 hours
Method: Figure 2 Prevention of cell death and ER stress by KUSs. (a) Photographs of HeLa cells, cultured with DMSO (DMSO) or KUSs (KUS94, KUS121, and KUS187, 20 μM each) for 41 hours in low glucose (0.2 g/l) medium. Scale bar, 100 μm. (b–e) WST (water-soluble tetrazolium salts) values reflecting relative live cell numbers are shown, as optical density (OD) at 450 nm. Error bars indicate SD. (b) WST values of HeLa cells, cultured in low glucose (0.2 g/l) with DMSO (control) or KUSs (50 μM for KUS121; 20 μM for KUS69, KUS94, and KUS187, n = 3) for 41 hours. (c) Cell viability, indicated by WST values of HeLa cells, cultured with tunicamycin (Tm) (0.2 μg/ml) for 41 hours with KUSs (20 μM each, n = 3). […]
HeLa, HEK293, and PC12 cells were cultured in Dulbecco's modified Eagle's medium (DMEM) with 10% fetal bovine serum. […] Viability of cultured cells was measured by formazan production with an ARVO multilabel counter (Wallac), using WST (water soluble tetrazolium salts)-8 reagent (Cell count reagent SF, Nacalai Tesque, Kyoto, Japan). ATP in cultured cells was measured by luciferase activities with an ARVO multilabel counter, using ATP assay reagent for cells (Toyo B-net, Tokyo, Japan). Acetyl-CoA was measured using a PicoProbe Acetyl CoA assay kit (BioVision, CA, USA) with a Spectra Max multilabel counter (Molecular Devices, CA, USA).

Sequence of recombinant VCP (P55072 whole entry, species assumed): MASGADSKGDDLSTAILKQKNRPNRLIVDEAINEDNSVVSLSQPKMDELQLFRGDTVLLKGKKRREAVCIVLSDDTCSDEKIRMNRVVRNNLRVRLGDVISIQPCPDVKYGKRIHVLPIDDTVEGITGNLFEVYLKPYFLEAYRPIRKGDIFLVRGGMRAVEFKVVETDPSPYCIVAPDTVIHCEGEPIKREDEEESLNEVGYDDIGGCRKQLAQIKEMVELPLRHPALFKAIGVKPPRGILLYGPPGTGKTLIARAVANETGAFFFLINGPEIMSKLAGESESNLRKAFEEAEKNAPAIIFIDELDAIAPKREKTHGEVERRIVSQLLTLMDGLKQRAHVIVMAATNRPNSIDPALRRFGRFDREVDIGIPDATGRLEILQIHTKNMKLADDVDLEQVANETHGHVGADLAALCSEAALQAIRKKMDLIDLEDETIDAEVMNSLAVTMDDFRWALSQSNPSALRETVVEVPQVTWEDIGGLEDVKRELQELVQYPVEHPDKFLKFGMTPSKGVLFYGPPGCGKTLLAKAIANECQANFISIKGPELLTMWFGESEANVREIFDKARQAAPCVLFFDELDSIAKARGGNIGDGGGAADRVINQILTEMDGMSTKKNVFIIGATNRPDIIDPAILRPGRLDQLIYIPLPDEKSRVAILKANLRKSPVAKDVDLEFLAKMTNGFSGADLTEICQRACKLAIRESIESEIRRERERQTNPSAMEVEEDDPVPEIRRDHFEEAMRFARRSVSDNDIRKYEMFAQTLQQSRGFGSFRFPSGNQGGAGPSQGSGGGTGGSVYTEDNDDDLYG

SMILES: Cc1cc(F)ccc1-c1ccc(/N=N/c2cc(S(=O)(=O)O)c3ccccc3c2N)cn1 [KUS121]
- TUNEL-positive apoptotic cells [1]: More TUNEL-positive apoptotic cells (green) were observed in the retina
- thickness of INL, IPL, GCL and RNFL (HE-stained sections) ([1]; vs retina without KUS121): thicker
- protection of retinal neuronal cells from NMDA insult ([1]; retinas from adult C57BL/6 mice): protects retinal neuronal cells from NMDA insult
- IC50 [2]: 200 to 300 nM and 330 nM
- dose dependence of protective effect [3]: dose-dependent
